Experimental data reported in ChEMBL document CHEMBL1201862, “PubChem BioAssay data set” (2004).
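Step 1: Grow cells in 96-well plates. Step 2: Expose to compound for 48 hours at 5 concentrations. Step 3: Interpolate endpoints linearly; if unreached, use highest concentration. The concentration for 50% growth inhibition is given as GI50.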 The source made the active and inactive calls. Cut-off read from the data, not from the text of the source: active = GI50 up to about 1.1 µM and inactive = higher.

How the values were obtained:
Assay in all cases: NCI anticancer screen, dose series, 48 h
[1] = test system: CCRF-CEM
[2] = test system: SF-268
[3] = test system: SW-620
[4] = test system: Hs-578T
[5] = test system: MCF7
[6] = test system: UO-31
[7] = test system: UACC-62
[8] = test system: EKVX
[9] = test system: SN12C
[10] = test system: 786-0
[11] = test system: SK-MEL-2
[12] = test system: Malme-3M
[13] = test system: K562
[14] = test system: NCI-H460
[15] = test system: HCC 2998
[16] = test system: ACHN
[17] = test system: LOX IMVI
[18] = test system: IGROV-1
[19] = test system: MOLT-4
[20] = test system: OVCAR-8
[21] = test system: TK-10
[22] = test system: RPMI-8226
[23] = test system: HCT-116
[24] = test system: SK-MEL-28
[25] = test system: NCI/ADR-RES
[26] = test system: SF-295
[27] = test system: SF-539
[28] = test system: KM12
[29] = test system: A549
[30] = test system: OVCAR-3
[31] = test system: SNB-19
[32] = test system: M14
[33] = test system: MDA-MB-231
[34] = test system: UACC-257
[35] = test system: SR
[36] = test system: HL-60
[37] = test system: A498
[38] = test system: HOP-92
[39] = test system: COLO 205
[40] = test system: DU-145
[41] = test system: SNB-75
[42] = test system: SK-OV-3
[43] = test system: MDA-N
[44] = test system: CAKI-1
[45] = test system: NCI-H522
[46] = test system: OVCAR-5
[47] = test system: OVCAR-4
[48] = test system: U-251
[49] = test system: T47D
[50] = test system: NCI-H23
[51] = test system: HCT-15
[52] = test system: PC-3
[53] = test system: NCI-H226
[54] = test system: SK-MEL-5
[55] = test system: HOP-62

For `O=C(O)CCCc1nc2c(n1Cc1ccccc1)C(=O)c1ccccc1C2=O`, which GI50 [1] is on record?
The GI50 was 5.19 µM (inactive).

What about the GI50 [2] of the same molecule?
The GI50 was 26.1 µM (inactive).

And the GI50 [3]?
The GI50 was 40.6 µM (inactive).

What about the GI50 [4] of the same molecule?
Its GI50 is 75.7 µM (inactive).

What about the GI50 [5] of the same molecule?
Its GI50 is 29.6 µM (inactive).

And the GI50 [6]?
The GI50 was > 100 µM (inactive).

What about the GI50 [7] of the same molecule?
The GI50 was 17.2 µM (inactive).

What about the GI50 [8] of the same molecule?
Its GI50 is 31.6 µM (inactive).

And the GI50 [9]?
The GI50 was 36.9 µM (inactive).

And the GI50 [10]?
Its GI50 is > 100 µM (inactive).

And the GI50 [11]?
The GI50 was 14.9 µM (inactive).

What about the GI50 [12] of the same molecule?
The GI50 was 15.7 µM (inactive).

What about the GI50 [13] of the same molecule?
Its GI50 is 42.7 µM (inactive).

And the GI50 [14]?
Its GI50 is 34.8 µM (inactive).

And the GI50 [15]?
The GI50 was 56.2 µM (inactive).

What about the GI50 [16] of the same molecule?
The GI50 was 45.2 µM (inactive).

And the GI50 [17]?
Its GI50 is 40.4 µM (inactive).

What about the GI50 [18] of the same molecule?
Its GI50 is 59.3 µM (inactive).

And the GI50 [19]?
Its GI50 is 44.9 µM (inactive).

What about the GI50 [20] of the same molecule?
Its GI50 is 36.6 µM (inactive).

What about the GI50 [21] of the same molecule?
Its GI50 is > 100 µM (inactive).

What about the GI50 [22] of the same molecule?
The GI50 was 18.7 µM (inactive).

What about the GI50 [23] of the same molecule?
Its GI50 is 28.6 µM (inactive).

What about the GI50 [24] of the same molecule?
The GI50 was > 100 µM (inactive).

And the GI50 [25]?
Its GI50 is 36.6 µM (inactive).

What about the GI50 [26] of the same molecule?
Its GI50 is 25.8 µM (inactive).

And the GI50 [27]?
Its GI50 is 69.8 µM (inactive).

What about the GI50 [28] of the same molecule?
The GI50 was 43.7 µM (inactive).

And the GI50 [29]?
Its GI50 is 30.8 µM (inactive).

And the GI50 [30]?
Its GI50 is 21.5 µM (inactive).

What about the GI50 [31] of the same molecule?
The GI50 was > 100 µM (inactive).

What about the GI50 [32] of the same molecule?
Its GI50 is 3.72 µM (inactive).

What about the GI50 [33] of the same molecule?
The GI50 was 47.9 µM (inactive).

And the GI50 [34]?
The GI50 was 25 µM (inactive).

And the GI50 [35]?
The GI50 was 44.7 µM (inactive).

And the GI50 [36]?
Its GI50 is 29.1 µM (inactive).

What about the GI50 [37] of the same molecule?
The GI50 was 34.4 µM (inactive).

What about the GI50 [38] of the same molecule?
The GI50 was 48.9 µM (inactive).

And the GI50 [39]?
The GI50 was 34.2 µM (inactive).

And the GI50 [40]?
The GI50 was 29.6 µM (inactive).

What about the GI50 [41] of the same molecule?
Its GI50 is > 10 µM (inactive).

And the GI50 [42]?
The GI50 was > 100 µM (inactive).

What about the GI50 [43] of the same molecule?
Its GI50 is 22.5 µM (inactive).

What about the GI50 [44] of the same molecule?
Its GI50 is > 100 µM (inactive).

What about the GI50 [45] of the same molecule?
The GI50 was 29.4 µM (inactive).

What about the GI50 [46] of the same molecule?
The GI50 was 76.9 µM (inactive).

And the GI50 [47]?
Its GI50 is 20.2 µM (inactive).

And the GI50 [48]?
The GI50 was 54.6 µM (inactive).

And the GI50 [49]?
The GI50 was 60.5 µM (inactive).

What about the GI50 [50] of the same molecule?
Its GI50 is 31.6 µM (inactive).

What about the GI50 [51] of the same molecule?
The GI50 was 52.4 µM.

`O=C1CSC(=S)N1` [RHODANINE] was tested. Which GI50 [1] did it give?
The GI50 was > 100 µM (inactive).

And the GI50 [2]?
Its GI50 is > 100 µM (inactive).

What about the GI50 [3] of the same molecule?
Its GI50 is > 100 µM (inactive).

And the GI50 [4]?
Its GI50 is > 100 µM (inactive).

And the GI50 [5]?
The GI50 was > 100 µM (inactive).

What about the GI50 [6] of the same molecule?
The GI50 was > 100 µM (inactive).

What about the GI50 [8] of the same molecule?
Its GI50 is > 100 µM (inactive).

And the GI50 [9]?
The GI50 was > 100 µM (inactive).

And the GI50 [10]?
Its GI50 is > 100 µM (inactive).

What about the GI50 [11] of the same molecule?
The GI50 was > 100 µM (inactive).

What about the GI50 [12] of the same molecule?
Its GI50 is > 100 µM (inactive).

And the GI50 [52]?
Its GI50 is > 100 µM (inactive).

What about the GI50 [13] of the same molecule?
The GI50 was > 100 µM (inactive).

And the GI50 [14]?
The GI50 was > 100 µM (inactive).

And the GI50 [15]?
The GI50 was > 100 µM (inactive).

What about the GI50 [16] of the same molecule?
Its GI50 is > 100 µM (inactive).

What about the GI50 [17] of the same molecule?
The GI50 was > 100 µM (inactive).

What about the GI50 [18] of the same molecule?
Its GI50 is > 100 µM (inactive).

And the GI50 [19]?
The GI50 was > 100 µM (inactive).

And the GI50 [53]?
Its GI50 is > 100 µM (inactive).

What about the GI50 [20] of the same molecule?
Its GI50 is > 100 µM (inactive).

What about the GI50 [21] of the same molecule?
The GI50 was > 100 µM (inactive).

What about the GI50 [22] of the same molecule?
The GI50 was > 100 µM (inactive).

What about the GI50 [23] of the same molecule?
The GI50 was > 100 µM (inactive).

What about the GI50 [24] of the same molecule?
Its GI50 is > 100 µM (inactive).

And the GI50 [25]?
The GI50 was > 100 µM (inactive).

What about the GI50 [26] of the same molecule?
The GI50 was > 100 µM (inactive).

And the GI50 [27]?
Its GI50 is > 100 µM (inactive).

And the GI50 [28]?
Its GI50 is > 100 µM (inactive).

What about the GI50 [29] of the same molecule?
Its GI50 is > 100 µM (inactive).

What about the GI50 [30] of the same molecule?
The GI50 was > 100 µM (inactive).

And the GI50 [31]?
The GI50 was > 100 µM (inactive).

What about the GI50 [54] of the same molecule?
The GI50 was > 100 µM (inactive).

What about the GI50 [32] of the same molecule?
The GI50 was > 100 µM (inactive).

What about the GI50 [33] of the same molecule?
The GI50 was > 100 µM (inactive).

And the GI50 [34]?
The GI50 was > 100 µM (inactive).

And the GI50 [35]?
Its GI50 is > 100 µM (inactive).

What about the GI50 [36] of the same molecule?
The GI50 was > 100 µM (inactive).

What about the GI50 [38] of the same molecule?
The GI50 was > 100 µM (inactive).

What about the GI50 [39] of the same molecule?
Its GI50 is > 100 µM (inactive).

And the GI50 [40]?
Its GI50 is > 100 µM (inactive).

And the GI50 [41]?
The GI50 was > 100 µM (inactive).

And the GI50 [55]?
The GI50 was > 100 µM (inactive).

What about the GI50 [43] of the same molecule?
Its GI50 is > 100 µM (inactive).

What about the GI50 [44] of the same molecule?
The GI50 was > 100 µM (inactive).

What about the GI50 [45] of the same molecule?
The GI50 was > 100 µM (inactive).

What about the GI50 [46] of the same molecule?
The GI50 was > 100 µM (inactive).

What about the GI50 [48] of the same molecule?
The GI50 was > 100 µM (inactive).

And the GI50 [49]?
Its GI50 is > 100 µM (inactive).

And the GI50 [50]?
The GI50 was > 100 µM (inactive).

What about the GI50 [51] of the same molecule?
Its GI50 is greater than 100 µM.
